Assay results: publication PMC10441322 (bioRxiv, 2023)

How the values were obtained:
[1] = target: T1, Shaker voltage-gated potassium channel (Drosophila melanogaster, UniProt P08510); test: cut-open voltage clamp of Shaker in Xenopus laevis oocytes, […] mV, pH […]; format: cell-based
CYP2E1 = CYP2E1 (Homo sapiens, UniProt P05181); test: Vivid CYP2E1 fluorogenic competitive inhibition assay, dose-response; format: biochemical
[2] = target: T1, Shaker voltage-gated potassium channel; test: cut-open voltage clamp of Shaker in Xenopus oocytes, […] mV, pH […]; format: cell-based

T1 sequence (P08510 whole entry): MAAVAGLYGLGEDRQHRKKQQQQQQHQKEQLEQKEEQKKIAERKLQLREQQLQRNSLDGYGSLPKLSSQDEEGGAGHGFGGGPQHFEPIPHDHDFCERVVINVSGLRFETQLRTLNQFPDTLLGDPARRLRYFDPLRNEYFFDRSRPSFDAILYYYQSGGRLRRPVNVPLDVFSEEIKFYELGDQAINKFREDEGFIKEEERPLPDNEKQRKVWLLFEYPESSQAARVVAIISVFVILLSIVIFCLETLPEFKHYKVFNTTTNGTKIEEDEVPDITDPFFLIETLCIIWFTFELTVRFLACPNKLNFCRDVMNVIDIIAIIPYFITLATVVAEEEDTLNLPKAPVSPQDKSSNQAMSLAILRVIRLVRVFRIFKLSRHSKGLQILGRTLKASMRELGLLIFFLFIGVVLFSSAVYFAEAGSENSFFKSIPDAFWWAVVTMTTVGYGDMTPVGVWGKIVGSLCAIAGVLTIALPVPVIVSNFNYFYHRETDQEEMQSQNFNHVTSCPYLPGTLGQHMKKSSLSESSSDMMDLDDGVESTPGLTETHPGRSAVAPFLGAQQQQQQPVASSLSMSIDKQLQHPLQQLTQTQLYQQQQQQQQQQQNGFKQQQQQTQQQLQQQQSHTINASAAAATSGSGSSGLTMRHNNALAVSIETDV
Sequence of CYP2E1 (P16435 2-677): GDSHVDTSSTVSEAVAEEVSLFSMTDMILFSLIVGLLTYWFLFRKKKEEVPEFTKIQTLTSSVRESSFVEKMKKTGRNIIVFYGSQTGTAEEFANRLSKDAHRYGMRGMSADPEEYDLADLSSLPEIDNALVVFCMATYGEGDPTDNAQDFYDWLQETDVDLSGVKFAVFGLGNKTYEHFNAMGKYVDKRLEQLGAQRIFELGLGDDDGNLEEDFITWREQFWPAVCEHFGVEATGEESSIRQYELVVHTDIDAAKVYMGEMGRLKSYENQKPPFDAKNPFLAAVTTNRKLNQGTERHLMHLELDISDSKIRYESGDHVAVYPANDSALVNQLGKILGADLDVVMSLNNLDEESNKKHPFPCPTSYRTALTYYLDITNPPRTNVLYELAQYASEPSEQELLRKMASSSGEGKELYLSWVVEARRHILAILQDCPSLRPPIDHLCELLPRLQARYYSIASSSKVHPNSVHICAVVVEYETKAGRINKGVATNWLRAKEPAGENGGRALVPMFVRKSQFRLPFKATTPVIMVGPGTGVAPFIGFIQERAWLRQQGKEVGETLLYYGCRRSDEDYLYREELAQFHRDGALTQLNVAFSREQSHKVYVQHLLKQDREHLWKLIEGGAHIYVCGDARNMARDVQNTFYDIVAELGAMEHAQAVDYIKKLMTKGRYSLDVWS
Sequence of CYP2E1 (P05181 whole entry): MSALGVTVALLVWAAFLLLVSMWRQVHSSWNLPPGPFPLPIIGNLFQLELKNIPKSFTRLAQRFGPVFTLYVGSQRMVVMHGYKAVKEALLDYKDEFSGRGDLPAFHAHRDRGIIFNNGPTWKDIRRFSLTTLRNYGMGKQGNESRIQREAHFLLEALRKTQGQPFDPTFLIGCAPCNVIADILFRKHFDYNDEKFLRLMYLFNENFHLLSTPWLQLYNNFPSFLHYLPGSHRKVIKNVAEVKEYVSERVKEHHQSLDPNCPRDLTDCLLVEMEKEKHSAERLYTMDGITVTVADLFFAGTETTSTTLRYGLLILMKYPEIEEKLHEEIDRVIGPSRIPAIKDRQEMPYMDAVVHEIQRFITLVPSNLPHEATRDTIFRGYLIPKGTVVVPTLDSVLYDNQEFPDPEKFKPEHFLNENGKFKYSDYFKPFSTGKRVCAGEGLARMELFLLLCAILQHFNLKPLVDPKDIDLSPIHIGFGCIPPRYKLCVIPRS

Row | SMILES | IC50 [1] [µM] | IC50 (CYP2E1) [µM] | IC50 [2] [µM]
1 | Cc1cncc(F)c1N [5Me3F4AP, 3-fluoro-5-methylpyridin-4-amine] | 301 | 35.9 | 
2 | Cc1cnccc1N [3Me4AP] |  |  | 66
3 | Nc1ccncc1F [3F4AP, 3-fluoro-4-aminopyridine] |  | 17 | 122
